Results published in PubChem BioAssay AID1918930 (Molecular Pharmacology Branch, DTP, NCI, 2023).

test system: 233499-124-R-J3-PDC complex spheroid viability, % test/control; experiment: Anticancer human tumor 233499-124-R-J3-PDC patient-derived colon adenocarcinoma cell line growth inhibition; conditions: second compound 0.1 µM; first compound 0.1 µM; stronger effect = lower value
Summary of the method: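 Drug combinations with the LSD1 inhibitor iadademstat tested on tumor cells co-cultured as spheroids with endothelial cells and mesenchymal stem cells. Concentrations descended in half-log increments from clinical Cmax or 10 microM.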
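Further: spheroids exposed to agents for one week before readout.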

Compound	viability, T/C [%]
CC1COCCN1c1cc(-c2ccnn2C)c2ccnc(-c3ccn[nH]3)c2n1 (centres undefined) + NC1CC1c1ccc(-c2cccc(O)c2)cc1	39.4
CC[C@@]1(O)C(=O)OCc2c1cc1n(c2=O)Cc2cc3c(CN(C)C)c(O)ccc3nc2-1 + NC1CC1c1ccc(-c2cccc(O)c2)cc1	115

same assay, conditions: second compound 0.1 µM; first compound 0.316 µM; stronger effect = lower value

Compound	viability, T/C [%]
CC(C)c1c(-c2ccccc2)nc2c(C#N)c[nH]n2c1=O + NC1CC1c1ccc(-c2cccc(O)c2)cc1	110
CC1(C)CCC(CN2CCN(c3ccc(C(=O)NS(=O)(=O)c4ccc(NCC5CCOCC5)c([N+](=O)[O-])c4)c(Oc4cnc5[nH]ccc5c4)c3)CC2)=C(c2ccc(Cl)cc2)C1 + NC1CC1c1ccc(-c2cccc(O)c2)cc1	113
CC1COCCN1c1cc(-c2ccnn2C)c2ccnc(-c3ccn[nH]3)c2n1 (centres undefined) + NC1CC1c1ccc(-c2cccc(O)c2)cc1	56.4

same assay, conditions: second compound 0.1 µM; first compound 1 µM; stronger effect = lower value

Compound	viability, T/C [%]
CC(C)c1c(-c2ccccc2)nc2c(C#N)c[nH]n2c1=O + NC1CC1c1ccc(-c2cccc(O)c2)cc1	100
CC1(C)CCC(CN2CCN(c3ccc(C(=O)NS(=O)(=O)c4ccc(NCC5CCOCC5)c([N+](=O)[O-])c4)c(Oc4cnc5[nH]ccc5c4)c3)CC2)=C(c2ccc(Cl)cc2)C1 + NC1CC1c1ccc(-c2cccc(O)c2)cc1	107
CC1COCCN1c1cc(-c2ccnn2C)c2ccnc(-c3ccn[nH]3)c2n1 (centres undefined) + NC1CC1c1ccc(-c2cccc(O)c2)cc1	102

same assay, conditions: second compound 0.1 µM; first compound 3.16 µM; stronger effect = lower value

Compound	viability, T/C [%]
CC(C)c1c(-c2ccccc2)nc2c(C#N)c[nH]n2c1=O + NC1CC1c1ccc(-c2cccc(O)c2)cc1	108
CC1(C)CCC(CN2CCN(c3ccc(C(=O)NS(=O)(=O)c4ccc(NCC5CCOCC5)c([N+](=O)[O-])c4)c(Oc4cnc5[nH]ccc5c4)c3)CC2)=C(c2ccc(Cl)cc2)C1 + NC1CC1c1ccc(-c2cccc(O)c2)cc1	41.1

same assay, conditions: second compound 0.1 µM; first compound 10 µM; stronger effect = lower value

Compound	viability, T/C [%]
CC(C)c1c(-c2ccccc2)nc2c(C#N)c[nH]n2c1=O + NC1CC1c1ccc(-c2cccc(O)c2)cc1	104
CC1(C)CCC(CN2CCN(c3ccc(C(=O)NS(=O)(=O)c4ccc(NCC5CCOCC5)c([N+](=O)[O-])c4)c(Oc4cnc5[nH]ccc5c4)c3)CC2)=C(c2ccc(Cl)cc2)C1 + NC1CC1c1ccc(-c2cccc(O)c2)cc1	0.86

same assay, conditions: second compound 0.316 µM; first compound 0.000316 µM; stronger effect = lower value

Compound	viability, T/C [%]
CC(C)CC(NC(=O)CNC(=O)c1cc(Cl)ccc1Cl)B1OC(=O)CC(CC(=O)O)(C(=O)O)O1 (centres undefined) + NC1CCC(NC2CC2c2ccccc2)CC1	109
CC[C@@]1(O)C(=O)OCc2c1cc1n(c2=O)Cc2cc3c(CN(C)C)c(O)ccc3nc2-1 + NC1CC1c1ccc(-c2cccc(O)c2)cc1	96.6

same assay, conditions: second compound 0.316 µM; first compound 0.001 µM; stronger effect = lower value

Compound	viability, T/C [%]
CC(C)CC(NC(=O)CNC(=O)c1cc(Cl)ccc1Cl)B1OC(=O)CC(CC(=O)O)(C(=O)O)O1 (centres undefined) + NC1CCC(NC2CC2c2ccccc2)CC1	96.2
CC[C@@]1(O)C(=O)OCc2c1cc1n(c2=O)Cc2cc3c(CN(C)C)c(O)ccc3nc2-1 + NC1CC1c1ccc(-c2cccc(O)c2)cc1	90

same assay, conditions: second compound 0.316 µM; first compound 0.00316 µM; stronger effect = lower value

Compound	viability, T/C [%]
CC(C)CC(NC(=O)CNC(=O)c1cc(Cl)ccc1Cl)B1OC(=O)CC(CC(=O)O)(C(=O)O)O1 (centres undefined) + NC1CCC(NC2CC2c2ccccc2)CC1	88.8
CC1COCCN1c1cc(-c2ccnn2C)c2ccnc(-c3ccn[nH]3)c2n1 (centres undefined) + NC1CC1c1ccc(-c2cccc(O)c2)cc1	62.7
CC[C@@]1(O)C(=O)OCc2c1cc1n(c2=O)Cc2cc3c(CN(C)C)c(O)ccc3nc2-1 + NC1CC1c1ccc(-c2cccc(O)c2)cc1	72.3

same assay, conditions: second compound 0.316 µM; first compound 0.01 µM; stronger effect = lower value

Compound	viability, T/C [%]
CC(C)CC(NC(=O)CNC(=O)c1cc(Cl)ccc1Cl)B1OC(=O)CC(CC(=O)O)(C(=O)O)O1 (centres undefined) + NC1CCC(NC2CC2c2ccccc2)CC1	7.64
CC1COCCN1c1cc(-c2ccnn2C)c2ccnc(-c3ccn[nH]3)c2n1 (centres undefined) + NC1CC1c1ccc(-c2cccc(O)c2)cc1	75.6
CC[C@@]1(O)C(=O)OCc2c1cc1n(c2=O)Cc2cc3c(CN(C)C)c(O)ccc3nc2-1 + NC1CC1c1ccc(-c2cccc(O)c2)cc1	71.4

same assay, conditions: second compound 0.316 µM; first compound 0.0316 µM; stronger effect = lower value

Compound	viability, T/C [%]
CC(C)c1c(-c2ccccc2)nc2c(C#N)c[nH]n2c1=O + NC1CC1c1ccc(-c2cccc(O)c2)cc1	100
CC1(C)CCC(CN2CCN(c3ccc(C(=O)NS(=O)(=O)c4ccc(NCC5CCOCC5)c([N+](=O)[O-])c4)c(Oc4cnc5[nH]ccc5c4)c3)CC2)=C(c2ccc(Cl)cc2)C1 + NC1CC1c1ccc(-c2cccc(O)c2)cc1	114
CC(C)CC(NC(=O)CNC(=O)c1cc(Cl)ccc1Cl)B1OC(=O)CC(CC(=O)O)(C(=O)O)O1 (centres undefined) + NC1CCC(NC2CC2c2ccccc2)CC1	8.46
CC1COCCN1c1cc(-c2ccnn2C)c2ccnc(-c3ccn[nH]3)c2n1 (centres undefined) + NC1CC1c1ccc(-c2cccc(O)c2)cc1	38.9
CC[C@@]1(O)C(=O)OCc2c1cc1n(c2=O)Cc2cc3c(CN(C)C)c(O)ccc3nc2-1 + NC1CC1c1ccc(-c2cccc(O)c2)cc1	79.5

same assay, conditions: second compound 0.316 µM; first compound 0.1 µM; stronger effect = lower value

Compound	viability, T/C [%]
CC(C)c1c(-c2ccccc2)nc2c(C#N)c[nH]n2c1=O + NC1CC1c1ccc(-c2cccc(O)c2)cc1	110
CC1(C)CCC(CN2CCN(c3ccc(C(=O)NS(=O)(=O)c4ccc(NCC5CCOCC5)c([N+](=O)[O-])c4)c(Oc4cnc5[nH]ccc5c4)c3)CC2)=C(c2ccc(Cl)cc2)C1 + NC1CC1c1ccc(-c2cccc(O)c2)cc1	102
CC(C)CC(NC(=O)CNC(=O)c1cc(Cl)ccc1Cl)B1OC(=O)CC(CC(=O)O)(C(=O)O)O1 (centres undefined) + NC1CCC(NC2CC2c2ccccc2)CC1	0.08
CC1COCCN1c1cc(-c2ccnn2C)c2ccnc(-c3ccn[nH]3)c2n1 (centres undefined) + NC1CC1c1ccc(-c2cccc(O)c2)cc1	36.6
CC[C@@]1(O)C(=O)OCc2c1cc1n(c2=O)Cc2cc3c(CN(C)C)c(O)ccc3nc2-1 + NC1CC1c1ccc(-c2cccc(O)c2)cc1	107

same assay, conditions: second compound 0.316 µM; first compound 0.316 µM; stronger effect = lower value

Compound	viability, T/C [%]
CC(C)c1c(-c2ccccc2)nc2c(C#N)c[nH]n2c1=O + NC1CC1c1ccc(-c2cccc(O)c2)cc1	109
CC1(C)CCC(CN2CCN(c3ccc(C(=O)NS(=O)(=O)c4ccc(NCC5CCOCC5)c([N+](=O)[O-])c4)c(Oc4cnc5[nH]ccc5c4)c3)CC2)=C(c2ccc(Cl)cc2)C1 + NC1CC1c1ccc(-c2cccc(O)c2)cc1	100
CC1COCCN1c1cc(-c2ccnn2C)c2ccnc(-c3ccn[nH]3)c2n1 (centres undefined) + NC1CC1c1ccc(-c2cccc(O)c2)cc1	43.7

same assay, conditions: second compound 0.316 µM; first compound 1 µM; stronger effect = lower value

Compound	viability, T/C [%]
CC(C)c1c(-c2ccccc2)nc2c(C#N)c[nH]n2c1=O + NC1CC1c1ccc(-c2cccc(O)c2)cc1	118
CC1(C)CCC(CN2CCN(c3ccc(C(=O)NS(=O)(=O)c4ccc(NCC5CCOCC5)c([N+](=O)[O-])c4)c(Oc4cnc5[nH]ccc5c4)c3)CC2)=C(c2ccc(Cl)cc2)C1 + NC1CC1c1ccc(-c2cccc(O)c2)cc1	111
CC1COCCN1c1cc(-c2ccnn2C)c2ccnc(-c3ccn[nH]3)c2n1 (centres undefined) + NC1CC1c1ccc(-c2cccc(O)c2)cc1	87.3

same assay, conditions: second compound 0.316 µM; first compound 3.16 µM; stronger effect = lower value

Compound	viability, T/C [%]
CC(C)c1c(-c2ccccc2)nc2c(C#N)c[nH]n2c1=O + NC1CC1c1ccc(-c2cccc(O)c2)cc1	117
CC1(C)CCC(CN2CCN(c3ccc(C(=O)NS(=O)(=O)c4ccc(NCC5CCOCC5)c([N+](=O)[O-])c4)c(Oc4cnc5[nH]ccc5c4)c3)CC2)=C(c2ccc(Cl)cc2)C1 + NC1CC1c1ccc(-c2cccc(O)c2)cc1	33.9

same assay, conditions: second compound 0.316 µM; first compound 10 µM; stronger effect = lower value

Compound	viability, T/C [%]
CC(C)c1c(-c2ccccc2)nc2c(C#N)c[nH]n2c1=O + NC1CC1c1ccc(-c2cccc(O)c2)cc1	110
CC1(C)CCC(CN2CCN(c3ccc(C(=O)NS(=O)(=O)c4ccc(NCC5CCOCC5)c([N+](=O)[O-])c4)c(Oc4cnc5[nH]ccc5c4)c3)CC2)=C(c2ccc(Cl)cc2)C1 + NC1CC1c1ccc(-c2cccc(O)c2)cc1	0.83

same assay, conditions: second compound 1 µM; first compound 0.000316 µM; stronger effect = lower value

Compound	viability, T/C [%]
CC(C)CC(NC(=O)CNC(=O)c1cc(Cl)ccc1Cl)B1OC(=O)CC(CC(=O)O)(C(=O)O)O1 (centres undefined) + NC1CCC(NC2CC2c2ccccc2)CC1	88.7
CC[C@@]1(O)C(=O)OCc2c1cc1n(c2=O)Cc2cc3c(CN(C)C)c(O)ccc3nc2-1 + NC1CC1c1ccc(-c2cccc(O)c2)cc1	86.7
